Test results published in ChEMBL document CHEMBL1201862, “PubChem BioAssay data set” (2004).
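Step 1: Grow cells in 96-well plates. Step 2: Expose to compound for 48 hours at 5 concentrations. Step 3: Interpolate endpoints linearly; if unreached, use highest concentration. Here, GI50 denotes the concentration required for 50% inhibition of growth.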 The source made the active and inactive calls. Rule as the data show it: active = GI50 up to about 1.1 µM and inactive = higher.

How the values were obtained:
Test in all cases: NCI-60 cell line screen, 48 h
[1] = system: UACC-62
[2] = system: SF-539
[3] = system: SN12C
[4] = system: HCC 2998
[5] = system: OVCAR-5
[6] = system: HL-60
[7] = system: COLO 205
[8] = system: K562
[9] = system: SK-MEL-28
[10] = system: SW-620
[11] = system: HOP-62
[12] = system: HT-29
[13] = system: SR
[14] = system: EKVX
[15] = system: A498
[16] = system: SK-MEL-2

Measured: GI50

CCN(CC)CC(C(=O)Nc1c(C)cccc1C)/C(C)=N\NC(=O)C[N+](C)(C)C (configuration not stated)
inactive: [1] > 100 µM | [2] > 100 µM | [3] > 100 µM | [4] > 100 µM | [5] > 100 µM | [6] > 100 µM | [7] > 100 µM | [8] > 100 µM | [9] > 100 µM | [10] > 100 µM | [11] > 100 µM | [12] > 100 µM | [13] > 100 µM

COc1ccc(-c2cc(-c3ccccc3)c(C#N)c(=O)[nH]2)cc1
inactive: [1] > 100 µM | [14] > 100 µM | [2] > 100 µM | [3] > 100 µM | [4] > 100 µM | [5] > 100 µM | [6] > 100 µM | [7] > 100 µM | [8] > 100 µM | [9] > 100 µM | [10] > 100 µM | [11] > 100 µM | [12] > 100 µM | [13] > 100 µM | [15] > 100 µM

CC(C)C(Nc1c2ccccc2[n+]([O-])c2ccccc12)C(=O)O (configuration not stated)
inactive: [1] 57.3 µM | [14] > 100 µM | [3] 61.1 µM | [4] > 100 µM | [5] > 100 µM | [6] 26.2 µM | [7] 52.5 µM | [8] 38.5 µM | [9] 43.1 µM | [10] > 100 µM | [16] 84.9 µM | [11] > 100 µM | [12] > 100 µM | [15] > 100 µM

COC(=O)c1ccc(OCc2ccc3oc(=O)c(-c4ccccc4)nc3c2)cc1
inactive: [14] > 100 µM | [2] > 100 µM | [3] > 100 µM | [4] > 100 µM | [5] > 100 µM | [6] 28.4 µM | [7] 33.9 µM | [8] 27.9 µM | [9] > 100 µM | [10] 57.3 µM | [16] > 100 µM | [11] > 100 µM | [12] > 100 µM | [13] 30.8 µM

COc1ccc2c(CCNS(=O)(=O)c3ccccc3)c(C(C)=O)[nH]c2c1[N+](=O)[O-]
inactive: [1] 48.5 µM | [2] 31.8 µM | [3] > 100 µM | [4] > 100 µM | [5] > 100 µM | [6] > 100 µM | [7] > 100 µM | [8] > 100 µM | [9] > 10 µM | [10] > 100 µM | [16] > 100 µM | [11] 86.7 µM | [12] > 100 µM | [13] > 100 µM | [15] > 100 µM

N/N=C(\CC1OC(=O)c2ccccc21)c1ccco1 (configuration not stated)
inactive: [1] > 100 µM | [14] > 100 µM | [2] > 100 µM | [4] > 100 µM | [5] > 100 µM | [6] > 100 µM | [7] > 100 µM | [8] 50 µM | [9] > 100 µM | [10] > 100 µM | [16] > 100 µM | [12] > 100 µM | [15] > 100 µM

CC(C)(C)c1cc(Oc2ccc(C#N)c(C#N)c2)cc(C(C)(C)C)c1
inactive: [1] > 100 µM | [14] > 100 µM | [2] > 100 µM | [3] > 100 µM | [4] > 100 µM | [5] > 100 µM | [6] > 100 µM | [7] > 100 µM | [8] 83.2 µM | [9] > 100 µM | [16] > 100 µM | [11] > 100 µM | [12] > 100 µM | [13] 19.8 µM | [15] > 100 µM

CN1CCN(CCNc2ccc(CO)c3sc4ccccc4c(=O)c23)CC1
inactive: [1] 13 µM | [2] 13.2 µM | [4] 6.87 µM | [5] 16.6 µM | [6] 8.93 µM | [7] 8.77 µM | [8] 3.84 µM | [9] 15.5 µM | [10] 4.18 µM | [16] 15 µM | [11] 5.06 µM | [12] 4.15 µM | [13] 2.51 µM

Cc1cc(=O)oc2cc(OCc3nc4ccccc4c(=O)n3-c3ccccc3)ccc12
inactive: [1] > 100 µM | [14] > 100 µM | [2] > 100 µM | [3] > 100 µM | [4] > 100 µM | [5] > 100 µM | [6] > 100 µM | [7] > 100 µM | [8] > 100 µM | [9] > 100 µM | [10] > 100 µM | [16] > 100 µM | [11] 97.7 µM | [12] > 100 µM | [15] > 100 µM

CCOC(=O)C(=Cc1ccc(C(=O)OC)cc1)C(=O)OCC
inactive: [1] 2.04 µM | [14] 11.1 µM | [2] 1.67 µM | [3] 2.25 µM | [4] 4.06 µM | [5] 7.16 µM | [6] 1.54 µM | [7] 1.85 µM | [8] 2.32 µM | [9] 1.71 µM | [10] 2.24 µM | [16] 1.75 µM | [11] 2.2 µM | [12] 3.21 µM | [15] 13.2 µM
